Data on 3 molecules can be found in patent US8916553B2 (Bristol-Myers Squibb Company, priority 2010, dated 2014).

One assay deals with Human CYP17 (Homo sapiens (Human), UniProt P05093). As to the kind of experiment: CYP17 Total SPA Assay. The note with it: microsomes from HEK2 cells stably transfected with CYP17; 3H-Pregnenolone 1 uM; NADPH 2 mM; 45 minutes at room temperature. The class given is biochemical. As for the experimental part:
CYP17 Total SPA Assay The assays were performed in U-bottom 384-well optiplates. […] The reaction was initiated by the combination of the microsomes and substrates in wells containing compound. The reaction was incubated at room temperature for 45 minutes and terminated by adding 7.5 μl of 0.2N HCl to each well. […] The plate was sealed and incubated overnight with shaking at 4° C. The beads were allowed to settle in the plate for 1 hour and the plate read on a TOPCOUNT® (Perkin-Elmer) plate reader. […] The final concentration of reagents in the assays are NADPH, 2 mM; 3H-Pregnenolone, 1 uM; microsomes, 1.25 ug/ml; […] Dose response curves were generated to determine the concentration required inhibiting 50% of enzyme activity (IC50). Compounds were dissolved at 10 mM in dimethylsulfoxide (DMSO) and evaluated at eleven concentrations, each in duplicate. IC50 values were derived by non-linear regression analysis. Table 22 below lists the IC50 values for the following Examples of this invention measured in the Total CYP17 SPA Assay hereinabove.

A further assay has as its system testosterone levels. As to the kind of experiment: 1-Day Cyno PK/PD Study. The class given is in vivo. Particulars: cynomolgus monkeys; single oral dose of 5 mg/Kg in 80% PEG-400/water; blood samples over a 24 hour period (FIG. 1). As for the experimental part:
1-Day Cyno PK/PD Study Protocol
Animals: All procedures involving animals and their care were conducted in conformity with the guidelines that are in compliance with the Bristol-Myers Squibb Institutional Animal Care and Use Committee. Fully mature male cynomolgus monkeys (>4 yrs of age; 5-6 kg) were from an in-house colony. All the monkeys used had chronically implanted femoral vein access ports. For oral studies, all animals were fasted overnight prior to dosing and were fed 4 hr after dosing. All animals had free access to water and were conscious throughout the study.
Drug: For all oral pharmacokinetic studies in cynomolgus monkeys, the tested compound was formulated in polyethylene glycol (PEG 400): water (80:20, v:v) at concentrations of 1-5 mg/mL. […]
Sampling: Blood samples were collected from the femoral port, at 15, 30, and 45 min, and 1, 2, 4, 6, 8, 12, 24, 30, and 48 hr after oral administration. […] The plasma fraction was immediately separated by centrifugation (14,000 rpm, 10 min, 4° C.), frozen on dry ice, and stored at −20° C. until the samples were analyzed.
Analysis of Tested Compound: Plasma samples were thawed and treated with two volumes of acetonitrile containing internal standard. After centrifugation to remove precipitated proteins, an aliquot of supernatant was analyzed by LC/MS/MS. […]

pIC50: −log10 of the molar value.

By pIC50 is commonly meant the negative decadic logarithm of the IC50, by convention in mol/L.

Human CYP17, sequence (P05093 whole entry): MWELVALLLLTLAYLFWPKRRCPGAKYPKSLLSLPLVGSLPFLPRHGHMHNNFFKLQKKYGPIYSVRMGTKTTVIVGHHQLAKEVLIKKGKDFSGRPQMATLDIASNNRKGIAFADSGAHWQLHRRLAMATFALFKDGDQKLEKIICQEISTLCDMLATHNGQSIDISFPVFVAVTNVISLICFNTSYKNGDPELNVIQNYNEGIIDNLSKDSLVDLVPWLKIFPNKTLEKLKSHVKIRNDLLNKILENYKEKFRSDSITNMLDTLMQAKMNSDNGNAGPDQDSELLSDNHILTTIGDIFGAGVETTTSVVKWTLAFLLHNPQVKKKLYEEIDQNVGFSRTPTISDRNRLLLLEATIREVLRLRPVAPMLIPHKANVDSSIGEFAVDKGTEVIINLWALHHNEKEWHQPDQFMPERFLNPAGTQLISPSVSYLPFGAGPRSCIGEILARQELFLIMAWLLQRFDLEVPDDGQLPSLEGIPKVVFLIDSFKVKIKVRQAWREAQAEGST

With `COc1cc(NS(C)(=O)=O)ccc1-c1cnccc1C` [Example 217, N-(3-methoxy-4-(4-methyl-3-pyridinyl)phenyl)methanesulfonamide], the pIC50 at Human CYP17 was 8.60. Moreover, the testosterone levels entry with testosterone levels is “reduced”.

With `COc1cc(NS(=O)(=O)Cc2ccccc2)ccc1-c1cncnc1C` [Example 168, N-(3-methoxy-4-(4-methylpyrimidin-5-yl)phenyl)-1-phenylmethanesulfonamide], the pIC50 on Human CYP17 was 8.02.

Consider `COc1cc(NS(C)(=O)=O)ccc1-c1cncc2ccccc12` [Example 142, N-(4-(isoquinolin-4-yl)-3-methoxyphenyl)methanesulfonamide], for which the pIC50 on Human CYP17 was 8.18.
